# In patent US20240041042A1, “1-(PYRIDYL)-5-AZINYLPYRAZOLE DERIVATIVES, AND THEIR USE FOR CONTROL OF UNDESIRED PLANT GROWTH” (Bayer Aktiengesellschaft, priority 2020, published 2024):
# Assays:
# Type in all cases: in vivo
# [1] = system: Avena fatua (AVEFA); assay: Pre-emergence herbicidal action against AVEFA; conditions: visual scoring after about 3 weeks vs untreated controls
# How it was run: (§1)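 Dosages of 320 g/ha or less; pre-emergence; WP or EC in aqueous spray, 0.5% additive, 600 l/ha; greenhouse; visual % effect after ~3 wk relative to control pots.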
# [2] = system: Amaranthus retroflexus (AMARE); assay: Pre-emergence herbicidal action against AMARE; conditions: visual scoring after about 3 weeks vs untreated controls
# How it was run: as §1
# [3] = system: Pharbitis purpurea (PHBPU); assay: Post-emergence herbicidal action against PHBPU
# How it was run: (§2)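 Values are percent visual activity (0% like control, 100% plants dead) after about 3 weeks in the greenhouse. Treatment: post-emergence spray at one-leaf stage, 600 l/ha spray volume, 0.5% additive, doses 320 g/ha or lower.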
# [4] = system: Polygonum convolvulus (POLCO); assay: Post-emergence herbicidal action against POLCO
# How it was run: as §2
# [5] = system: Polygonum convolvulus (POLCO); assay: Pre-emergence herbicidal action against POLCO
# How it was run: as §1
# [6] = system: Abutilon theophrasti (ABUTH); assay: Pre-emergence herbicidal action against ABUTH; conditions: 100% = plants have died
# How it was run: as §1
# [7] = system: Lolium rigidum (LOLRI); assay: Post-emergence herbicidal action against LOLRI
# How it was run: as §2
# [8] = system: Alopecurus myosuroides (ALOMY); assay: Post-emergence herbicidal action against ALOMY; conditions: visual rating about 3 weeks after treatment vs untreated controls (100% = plants have died, 0% = like control plants)
# How it was run: as §2
# [9] = system: Setaria viridis (SETVI); assay: Pre-emergence herbicidal action against SETVI
# How it was run: as §1
# [10] = system: Setaria viridis (SETVI); assay: Post-emergence herbicidal action against SETVI
# How it was run: as §2
# [11] = 80 g/ha, scored visually after about 3 weeks vs untreated controls, 0% = like control plants
# [12] = Dosage column 320 g/ha (title prints 3200 g/ha), scored visually after about 3 weeks
SMILES,Pre-emergence action against AVEFA in % ([1]; 80 g/ha) [%],Pre-emergence action against AVEFA in % ([1]; 320 g/ha) [%],Pre-emergence action against AMARE in % ([2]; 80 g/ha) [%],Pre-emergence action against AMARE in % ([2]; 320 g/ha) [%],Post-emergence action against PHBPU in % ([3]; dosage 80 g/ha) [%],Post-emergence action against PHBPU in % ([3]; dosage 320 g/ha) [%],Post-emergence action against POLCO in % ([4]; dosage 80 g/ha) [%],Post-emergence action against POLCO in % ([4]; dosage 320 g/ha) [%],Pre-emergence action against POLCO in % ([5]; dosage 80 g/ha) [%],Pre-emergence action against POLCO in % ([5]; dosage 320 g/ha) [%],"Pre-emergence action against ABUTH [6, 11] [%]","Pre-emergence action against ABUTH [6, 12] [%]",Post-emergence action against LOLRI in % ([7]; dosage 80 g/ha) [%],Post-emergence action against LOLRI in % ([7]; dosage 320 g/ha) [%],Post-emergence action against ALOMY in % ([8]; 80 g/ha) [%],Post-emergence action against ALOMY in % ([8]; 320 g/ha) [%],Pre-emergence action against SETVI in % ([9]; dosage 80 g/ha) [%],Pre-emergence action against SETVI in % ([9]; dosage 320 g/ha) [%],Post-emergence action against SETVI in % ([10]; dosage 80 g/ha) [%],Post-emergence action against SETVI in % ([10]; dosage 320 g/ha) [%]
CCOC(=O)[C@@H](C)Oc1nn(-c2ccccn2)c(-c2cncc(F)c2)c1Cl [Example I-184],80,90,100,100,90,90,80,80,90,90,90,90,90,90,80,90,100,100,80,90
COC(=O)CNC(=O)[C@@H](C)Oc1nn(-c2ccccn2)c(-c2cncc(F)c2)c1Br [Example I-187],–,90,80,100,–,80,80,80,90,90,80,90,90,90,–,90,100,100,–,80
COC(=O)C(C)COC(=O)[C@@H](C)Oc1nn(-c2ccccn2)c(-c2cncc(F)c2)c1Br (some centres unmarked) [Example I-188],80,90,100,100,90,90,80,80,90,90,80,90,90,90,80,90,100,100,80,80
COC(=O)[C@H](C)COC(=O)COc1nn(-c2ccccn2)c(-c2cncc(F)c2)c1Cl [Example I-192],–,90,80,100,90,90,–,80,90,100,–,80,–,80,90,90,90,100,80,80
COC(=O)CCOC(=O)[C@@H](C)Oc1nn(-c2ccccn2)c(-c2cncc(F)c2)c1Cl [Example I-196],80,90,100,100,90,90,80,80,90,90,80,90,90,90,80,90,90,100,80,80
CCOC(=O)[C@@H](C)Oc1nn(-c2nc(F)ccc2F)c(-c2cncc(F)c2)c1Cl [Example I-208],80,90,90,100,80,90,–,80,90,90,80,90,–,80,–,80,90,100,80,80
COCCOC(=O)COc1nn(-c2ncccc2C)c(-c2cncc(F)c2)c1Br [Example I-212],80,90,90,100,90,100,80,90,90,90,–,80,–,80,90,90,100,100,80,80
C[C@@H](Oc1nn(-c2ccccn2)c(-c2cncc(F)c2)c1Cl)C(=O)O [Example I-218],80,90,100,100,90,100,–,80,90,90,80,90,80,90,–,90,90,100,80,80
COC(=O)[C@@H](C)Oc1nn(-c2ncccc2F)c(-c2ccc(F)nc2)c1C(F)(F)F [Example I-331],100,100,100,100,–,90,80,80,100,100,80,90,90,90,100,100,–,90,90,90
COC(=O)[C@@H](C)Oc1nn(-c2ncccc2F)c(-c2ccc(F)nc2)c1I [Example I-341],–,90,100,100,90,100,80,80,90,100,90,90,90,90,80,100,80,100,80,80
